{"source": "ChEMBL document CHEMBL5055630", "about": "“Design, synthesis and biological evaluation of indole-based [1,2,4]triazolo[4,3-a] pyridine derivatives as novel microtubule polymerization inhibitors” (Eur J Med Chem, 2021)", "key": {"[1]": {"test_system": "HeLa", "experiment": "Induction of apoptosis in human HeLa cells assessed as increase in cleaved caspase 3 protein expression after 24 hrs by Western blot analysis", "assay_type": "functional, cell-based", "details": "dose 10-1000 nM"}, "[2]": {"test_system": "HeLa", "experiment": "Induction of apoptosis in human HeLa cells assessed as early apoptotic cells at 25 nM incubated for 48 hrs by Annexin V and propidium iodide Staining based assay (reference value: 0.2%)", "assay_type": "functional"}, "[3]": {"test_system": "HeLa", "experiment": "Induction of apoptosis in human HeLa cells assessed as late apoptotic cells at 50 nM incubated for 48 hrs by Annexin V and propidium iodide Staining based assay (reference value: 1 %)", "assay_type": "functional"}, "[4]": {"test_system": "HeLa", "experiment": "Inhibition of cell migration in human HeLa cells at 5 nM incubated for 24 hrs by microscopy method relative to control", "assay_type": "functional"}, "[5]": {"test_system": "HeLa", "experiment": "Induction of apoptosis in human HeLa cells assessed as reduction in Bcl-xl protein expression after 24 hrs by Western blot analysis", "assay_type": "functional, cell-based", "details": "dose 10-1000 nM"}, "[6]": {"test_system": "Tubulin beta", "experiment": "Inhibition of beta-tubulin polymerization in human HeLa cells assessed as inhibition of EBI-beta-tubulin adduct formation measured by Western blot-based EBI competition assay", "assay_type": "cell-based"}, "[7]": {"test_system": "HeLa", "experiment": "Induction of cell cycle arrest in human HeLa cells assessed as accumulation of cells at G2/M phase at 10 nM incubated for 24 hrs by propidium iodide staining based flow cytometry analysis", "assay_type": "functional"}, "[8]": {"test_system": "HeLa", "experiment": "Induction of apoptosis in human HeLa cells assessed as necrotic cells at 50 nM incubated for 48 hrs by Annexin V and propidium iodide Staining based assay (reference value: 0.4%)", "assay_type": "functional"}, "[9]": {"test_system": "HeLa", "experiment": "Inhibition of cell migration in human HeLa cells at 10 nM incubated for 24 hrs by microscopy method relative to control", "assay_type": "functional"}, "[10]": {"test_system": "HeLa", "experiment": "Induction of apoptosis in human HeLa cells assessed as increase in cleaved-PARP 1 protein expression after 24 hrs by Western blot analysis", "assay_type": "functional, cell-based", "details": "dose 10-1000 nM"}, "[11]": {"test_system": "HeLa", "experiment": "Inhibition of cell migration in human HeLa cells at 25 nM incubated for 24 hrs by microscopy method relative to control", "assay_type": "functional"}, "[12]": {"test_system": "HeLa", "experiment": "Induction of apoptosis in human HeLa cells assessed as late apoptotic cells at 10 nM incubated for 48 hrs by Annexin V and propidium iodide Staining based assay (reference value: 1 %)", "assay_type": "functional"}, "[13]": {"test_system": "HeLa", "experiment": "Induction of apoptosis in human HeLa cells assessed as increase in bax protein expression after 24 hrs by Western blot analysis", "assay_type": "functional, cell-based", "details": "dose 10-1000 nM"}, "[14]": {"test_system": "HeLa", "experiment": "Induction of apoptosis in human HeLa cells assessed as necrotic cells at 25 nM incubated for 48 hrs by Annexin V and propidium iodide Staining based assay (reference value: 0.4%)", "assay_type": "functional"}, "[15]": {"experiment": "Metabolic stability in human liver microsomes assessed as parent compound remaining after 30 mins", "assay_type": "ADME, Microsome", "details": "read-out: Stability"}, "[16]": {"target": "Tubulin (Homo sapiens) (UniProt P68371+Q9H4B7+P0DPH7+P68366+Q13509+Q71U36+P04350+Q3ZCM7+P07437+P68363+Q9BQE3+Q6PEY2+Q13885+Q9BVA1+Q9BUF5)", "experiment": "Induction of microtubule disruption in human Hela cells assessed as fragmented and disassembled microtubule network in cytosol at 10 to 50 nM incubated for 24 hrs by AlexaFluor 488 dye/DAPI staining based immunofluorescence assay", "assay_type": "cell-based", "details": "dose 10-50 nM"}, "[17]": {"test_system": "HeLa", "experiment": "Antiproliferative activity against human HeLa assessed as reduction in cell viability measured after 48 hrs by MTT assay", "assay_type": "functional, cell-based"}, "[18]": {"test_system": "HeLa", "experiment": "Induction of apoptosis in human HeLa cells assessed as viable cells at 10 nM incubated for 48 hrs by Annexin V and propidium iodide Staining based assay (reference value: 98.5 %)", "assay_type": "functional", "details": "read-out: Activity"}, "[19]": {"test_system": "HeLa", "experiment": "Induction of cell cycle arrest in human HeLa cells assessed as increase in cyclin B1 level at 10 to 1000 nM measured after 24 hrs by immunoblotting assay", "assay_type": "functional, cell-based", "details": "dose 10-1000 nM"}, "[20]": {"test_system": "HeLa", "experiment": "Induction of apoptosis in human HeLa cells assessed as early apoptotic cells at 10 nM incubated for 48 hrs by Annexin V and propidium iodide Staining based assay (reference value: 0.2%)", "assay_type": "functional"}, "[21]": {"test_system": "HeLa", "experiment": "Induction of apoptosis in human HeLa cells assessed as late apoptotic cells at 25 nM incubated for 48 hrs by Annexin V and propidium iodide Staining based assay (reference value: 1 %)", "assay_type": "functional"}, "[22]": {"experiment": "Metabolic stability in human liver microsomes assessed as parent compound remaining after 60 mins", "assay_type": "ADME, Microsome", "details": "read-out: Stability"}, "[23]": {"test_system": "HCT-116", "experiment": "Antiproliferative activity against human HCT-116 assessed as reduction in cell viability measured after 48 hrs by MTT assay", "assay_type": "functional, cell-based", "details": "HCT-116, 48 h"}, "[24]": {"test_system": "HeLa", "experiment": "Induction of apoptosis in human HeLa cells assessed as early apoptotic cells at 50 nM incubated for 48 hrs by Annexin V and propidium iodide Staining based assay (reference value: 0.2%)", "assay_type": "functional"}, "[25]": {"test_system": "HeLa", "experiment": "Induction of cell cycle arrest in human HeLa cells assessed as accumulation of cells at G2/M phase at 5 nM incubated for 24 hrs by propidium iodide staining based flow cytometry analysis", "assay_type": "functional"}, "[26]": {"test_system": "HeLa", "experiment": "Induction of apoptosis in human HeLa cells assessed as viable cells at 25 nM incubated for 48 hrs by Annexin V and propidium iodide Staining based assay (reference value: 98.5 %)", "assay_type": "functional", "details": "read-out: Activity"}, "[27]": {"test_system": "HeLa", "experiment": "Induction of apoptosis in human HeLa cells assessed as necrotic cells at 10 nM incubated for 48 hrs by Annexin V and propidium iodide Staining based assay (reference value: 0.4%)", "assay_type": "functional"}, "[28]": {"experiment": "Metabolic stability in human liver microsomes assessed as parent compound remaining measured immediately after compound addition", "assay_type": "ADME, Microsome", "details": "read-out: Stability"}, "[29]": {"test_system": "HeLa", "experiment": "Induction of cell cycle arrest in human HeLa cells assessed as reduction in Cdc2 expression at 10 to 1000 nM measured after 24 hrs by immunoblotting assay", "assay_type": "functional, cell-based", "details": "dose 10-1000 nM"}, "[30]": {"test_system": "HeLa", "experiment": "Induction of apoptosis in human HeLa cells assessed as viable cells at 50 nM incubated for 48 hrs by Annexin V and propidium iodide Staining based assay (reference value: 98.5 %)", "assay_type": "functional", "details": "read-out: Activity"}, "[31]": {"experiment": "Metabolic stability in human liver microsomes assessed as parent compound remaining after 90 mins", "assay_type": "ADME, Microsome", "details": "read-out: Stability"}, "[32]": {"target": "Tubulin", "experiment": "Inhibition of tubulin polymerization (unknown origin) assessed as fluorescence intensity measured for 90 mins by DAPI based microplate reader", "assay_type": "functional, Homo sapiens"}, "[33]": {"experiment": "Metabolic stability in human liver microsomes assessed as half life", "assay_type": "ADME, Microsome"}, "[34]": {"test_system": "A549", "experiment": "Antiproliferative activity against human A549 assessed as reduction in cell viability measured after 48 hrs by MTT assay", "assay_type": "functional, cell-based", "details": "A549, 48 h"}, "[35]": {"test_system": "HeLa", "experiment": "Induction of apoptosis in human HeLa cells assessed as reduction in Bcl-2 protein expression after 24 hrs by Western blot analysis", "assay_type": "functional, cell-based", "details": "dose 10-1000 nM"}, "[36]": {"test_system": "HeLa", "experiment": "Induction of apoptosis in human HeLa cells assessed as increase in bad protein expression after 24 hrs by Western blot analysis", "assay_type": "functional, cell-based", "details": "dose 10-1000 nM"}, "[37]": {"test_system": "HeLa", "experiment": "Induction of cell cycle arrest in human HeLa cells assessed as reduction in Cdc25c expression at 10 to 1000 nM measured after 24 hrs by immunoblotting assay", "assay_type": "functional, cell-based", "details": "dose 10-1000 nM"}, "[38]": {"test_system": "HeLa", "experiment": "Induction of cell cycle arrest in human HeLa cells assessed as accumulation of cells at G2/M phase at 50 nM incubated for 24 hrs by propidium iodide staining based flow cytometry analysis", "assay_type": "functional"}, "[39]": {"test_system": "MCF7", "experiment": "Antiproliferative activity against human MCF7 assessed as reduction in cell viability measured after 48 hrs by MTT assay", "assay_type": "functional, cell-based", "details": "MCF7, 48 h"}, "[40]": {"experiment": "Metabolic stability in human liver microsomes assessed as parent compound remaining after 15 mins", "assay_type": "ADME, Microsome", "details": "read-out: Stability"}}, "note": "Activity calls are given as the source filed them. The rule behind the calls is not given here.", "data": [{"smiles": "COc1cc(-c2nnc3c(OC)cc(-c4ccc5c(ccn5C)c4)cn23)cc(OC)c1OC", "values": [{"measurement": "Activity", "setting": "[1]", "result": "Dose-dependent effect"}, {"measurement": "Activity", "setting": "[2]", "result": 11.1, "unit": "%"}, {"measurement": "Activity", "setting": "[3]", "result": 65.7, "unit": "%"}, {"measurement": "inhibition at 0.005 µM", "setting": "[4]", "result": 22.1, "unit": "%"}, {"measurement": "Activity", "setting": "[5]", "result": "Dose-dependent effect"}, {"measurement": "IC50", "setting": "[6]", "result": "Dose-dependent effect"}, {"measurement": "Activity", "setting": "[7]", "result": 37.7, "unit": "%"}, {"measurement": "Activity", "setting": "[8]", "result": 2.6, "unit": "%"}, {"measurement": "inhibition at 0.01 µM", "setting": "[9]", "result": 32.2, "unit": "%"}, {"measurement": "Activity", "setting": "[10]", "result": "Dose-dependent effect"}, {"measurement": "inhibition at 0.025 µM", "setting": "[11]", "result": 44.3, "unit": "%"}, {"measurement": "Activity", "setting": "[12]", "result": 48.8, "unit": "%"}, {"measurement": "Activity", "setting": "[13]", "result": "Dose-dependent effect"}, {"measurement": "Activity", "setting": "[14]", "result": 3.6, "unit": "%"}, {"measurement": "remaining at 0.5 h", "setting": "[15]", "result": 55.5, "unit": "%"}, {"measurement": "Activity", "setting": "[16]", "result": "Active"}, {"measurement": "IC50", "setting": "[17]", "result": 15, "unit": "nM"}, {"measurement": "viability at 0.01 µM", "setting": "[18]", "result": 41.8, "unit": "%"}, {"measurement": "Activity", "setting": "[19]", "result": "Active"}, {"measurement": "Activity", "setting": "[20]", "result": 7.1, "unit": "%"}, {"measurement": "Activity", "setting": "[21]", "result": 54, "unit": "%"}, {"measurement": "remaining at 1 h", "setting": "[22]", "result": 37.5, "unit": "%"}, {"measurement": "IC50", "setting": "[23]", "result": 33, "unit": "nM"}, {"measurement": "Activity", "setting": "[24]", "result": 27.6, "unit": "%"}, {"measurement": "Activity", "setting": "[25]", "result": 17.4, "unit": "%"}, {"measurement": "viability at 0.025 µM", "setting": "[26]", "result": 31.2, "unit": "%"}, {"measurement": "Activity", "setting": "[27]", "result": 2.4, "unit": "%"}, {"measurement": "remaining at 0 min", "setting": "[28]", "result": 100, "unit": "%"}, {"measurement": "Activity", "setting": "[29]", "result": "Active"}, {"measurement": "viability at 0.05 µM", "setting": "[30]", "result": 4.2, "unit": "%"}, {"measurement": "remaining at 1.5 h", "setting": "[31]", "result": 30.1, "unit": "%"}, {"measurement": "IC50", "setting": "[32]", "result": 1640, "unit": "nM"}, {"measurement": "half-life", "setting": "[33]", "result": 51.7, "unit": "min"}, {"measurement": "IC50", "setting": "[34]", "result": 69, "unit": "nM"}, {"measurement": "Activity", "setting": "[35]", "result": "Dose-dependent effect"}, {"measurement": "Activity", "setting": "[36]", "result": "Dose-dependent effect"}, {"measurement": "Activity", "setting": "[37]", "result": "Active"}, {"measurement": "Activity", "setting": "[38]", "result": 77, "unit": "%"}, {"measurement": "IC50", "setting": "[39]", "result": 49, "unit": "nM"}, {"measurement": "remaining at 0.25 h", "setting": "[40]", "result": 75.9, "unit": "%"}]}]}
